Experiment [1] addresses T1, glutathione-S-transferase (GST) tagged LXRalpha LBD (ligand binding domain) (Homo sapiens, UniProt Q13133).
T1 construct: purchased Invitrogen pv4655
T1 sequence (Q13133 209-447 limits assumed): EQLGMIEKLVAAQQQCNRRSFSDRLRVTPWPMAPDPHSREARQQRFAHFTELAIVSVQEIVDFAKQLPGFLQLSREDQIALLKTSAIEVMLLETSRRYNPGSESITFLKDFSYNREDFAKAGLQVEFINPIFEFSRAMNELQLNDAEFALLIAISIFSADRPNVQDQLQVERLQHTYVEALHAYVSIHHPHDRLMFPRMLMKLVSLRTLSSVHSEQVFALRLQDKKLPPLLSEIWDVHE
The experiment can be described thus: LanthaScreen TR-FRET Liver X Receptor Coactivator Assay, co-activator recruitment to LXRalpha LBD. It is filed as biochemical. The following applies: for Emax: efficacy at max dose, in relation to reference dual agonist T0901317, read-out: LXR alpha Activity @ max dose (%); for LXR alpha IP (nM) / EC50: potency (Inflection Point, IP), co-activator recruitment to LXRalpha LBD, in relation to T0901317; for EC50: read-out: LXR alpha IP. A digest of the protocol:
(§1)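 Compound-induced coactivator recruitment by the GST-fused ligand binding domain, detected as TR-FRET between Tb-labelled anti-GST antibody and fluorescein-tagged coactivator peptide after room-temperature incubation. IP and Emax expressed versus T0901317 as reference agonist.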
In general terms: Time-resolved FRET reads energy transfer from a long-lived donor to a nearby acceptor.

The target of experiment [2] is T2, glutathione-S-transferase (GST) tagged LXRbeta LBD (ligand binding domain) (Homo sapiens, UniProt P55055).
T2 construct: purchased Invitrogen pv4658.pps
T2 sequence (P55055 222-460 limits assumed): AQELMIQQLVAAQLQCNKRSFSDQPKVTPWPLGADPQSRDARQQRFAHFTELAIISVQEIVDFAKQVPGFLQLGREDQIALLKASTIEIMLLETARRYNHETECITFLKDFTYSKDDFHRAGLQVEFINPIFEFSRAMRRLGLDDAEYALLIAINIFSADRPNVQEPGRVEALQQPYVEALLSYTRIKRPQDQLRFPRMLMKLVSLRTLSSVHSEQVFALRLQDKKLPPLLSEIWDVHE
The experiment can be described thus: LanthaScreen TR-FRET Liver X Receptor Coactivator Assay, co-activator recruitment to LXRbeta LBD. The experiment is classed as biochemical. Particulars: for Emax: read-out: LXR beta Activity @ max dose (%); for EC50: potency (Inflection Point, IP), co-activator recruitment to LXRbeta LBD, in relation to T0901317. A digest of the protocol: as §1

Setting [3] is: efficacy at max dose, in relation to reference dual agonist T0901317.

This note sets out measurements from patent US10752587B2, “Homobispiperidinyl derivatives as liver X receptor beta agonists, compositions and their use” (Merck Sharp & Dohme Corp., priority 2015, dated 2020).

Read-outs that look alike come from different tables or passages of the source.

Consider `COc1cccc([C@@](O)(C(=O)N2CCCC(CC3CCN(c4ccc(C(=O)N(C)C)c(Cl)c4)CC3)CC2)C(F)(F)F)c1` (stereo partly drawn) [Example 2-161, 2-chloro-N,N-dimethyl-4-[4-({1-[(2R)-3,3,3-trifluoro-2-hydroxy-2-(3-methoxy-phenyl)propanoyl]azepan-4-yl}methyl)piperidin-1-yl]benzamide], for which, in experiment [1], the Emax was 0% and the “LXR alpha IP (nM)” value is “NO IP”. Also, in experiment [2] (setting [3]), the Emax is 28%. For the same compound, in experiment [2] (read-out: LXR beta IP), the EC50 was 13 nM.

On to `CN(C)C(=O)c1ccc(N2CCC(CCC3CCN(C(=O)[C@](O)(c4ccccc4)C(F)(F)F)CC3)CC2)cc1Cl` [Example 2-162, 2-chloro-N,N-dimethyl-4-[4-(2-{1-[(2R)-3,3,3-trifluoro-2-hydroxy-2-phenyl-propanoyl]piperidin-4-yl}ethyl)piperidin-1-yl]benzamide], for which, in experiment [1], the Emax worked out at 12% and the “LXR alpha IP (nM)” value was “NO IP”. Also, the Emax in experiment [2] (setting [3]) worked out at 38%. In addition, the EC50 in experiment [2] (read-out: LXR beta IP) amounted to 502 nM.

In the case of `COc1cccc(C(O)(C(=O)N2CCC(CCC3CCN(c4ccc(C(=O)N(C)C)c(Cl)c4)CC3)CC2)C(F)(F)F)c1` (stereo not shown) [Example 2-163, 2-chloro-N,N-dimethyl-4-[4-(2-{1-[3,3,3-trifluoro-2-hydroxy-2-(3-methoxyphenyl)propanoyl]piperidin-4-yl}ethyl)piperidin-1-yl]benzamide], in experiment [1], the Emax came to 0% and the “LXR alpha IP (nM)” value is reported as “NO IP”. Moreover, the Emax in experiment [2] (setting [3]) was 39%. The EC50 in experiment [2] (read-out: LXR beta IP) is 728 nM.

Regarding `CN(C)C(=O)c1ccc(N2CCC(CC3CCN(C(=O)[C@](O)(c4cccc(F)c4)C(F)F)CC3)CC2)cc1Cl` [Example 2-164, 2-chloro-4-[4-({1-[(2R)-3,3-difluoro-2-(3-fluorophenyl)-2-hydroxy-propanoyl]piperidin-4-yl}methyl)piperidin-1-yl]-N,N-dimethyl-benzamide], the Emax was determined as 29% in experiment [1] and 70% in experiment [2] (setting [3]). Moreover, the results for the EC50 in experiment [1] and in experiment [2] (read-out: LXR beta IP) were 294 nM and 12 nM, respectively.

In the case of `CN(C)C(=O)c1ccc(N2CCC(CC3CCN(C(=O)[C@](O)(c4ccccc4)C(F)F)CC3)CC2)cc1Cl` [Example 2-166, 2-chloro-4-[4-({1-[(2R)-3,3-difluoro-2-hydroxy-2-phenyl-propanoyl]piperidin-4-yl}methyl)piperidin-1-yl]-N,N-dimethyl-benzamide], the Emax is 20% in experiment [1] and 46% in experiment [2] (setting [3]). Moreover, the EC50 in experiment [1] is 296 nM; in experiment [2] (read-out: LXR beta IP), 14 nM.

Consider `CN(C)C(=O)c1ccc(N2CCC(CC3CCN(C(=O)C(N)(c4cccc(Cl)c4)C(F)(F)F)CC3)CC2)cc1Cl` (stereo not shown) [Example 2-167, 4-[4-({1-[2-amino-2-(3-chlorophenyl)-3,3,3-trifluoro-propanoyl]piperidin-4-yl}methyl)piperidin-1-yl]-2-chloro-N,N-dimethyl-benzamide], for which, in experiment [1], the Emax is 18% and the “LXR alpha IP (nM)” value is given as “NO IP”. In experiment [2] (setting [3]), the Emax is 75%. Also, the EC50 in experiment [2] (read-out: LXR beta IP) was 37 nM.

As for `CN(C)C(=O)c1ccc(N2CCC(CC3CCN(C(=O)C(O)(c4cccc5ccccc45)C(F)(F)F)CC3)CC2)cc1Cl` (stereo not shown) [Example 2-168, 2-chloro-N,N-dimethyl-4-(4-{[1-(3,3,3-trifluoro-2-hydroxy-2-naphthalen-1-ylpropanoyl)piperidin-4-yl]methyl}piperidin-1-yl)benzamide], in experiment [1], the Emax was determined as 0% and the “LXR alpha IP (nM)” value is on record as “NO IP”. Further, the Emax in experiment [2] (setting [3]) is 21%. Further, in experiment [2] (read-out: LXR beta IP), the EC50 amounted to 58 nM.

Consider `CN(C)C(=O)c1ccc(N2CCC(CC3CCN(C(=O)C(O)(c4cccc5c4CCC5)C(F)(F)F)CC3)CC2)cc1Cl` (stereo not shown) [Example 2-170, 2-chloro-4-[4-({1-[2-(2,3-dihydro-1H-inden-4-yl)-3,3,3-trifluoro-2-hydroxy-propanoyl]piperidin-4-yl}methyl)piperidin-1-yl]-N,N-dimethyl-benzamide], for which, in experiment [1], the Emax stood at 0% and the “LXR alpha IP (nM)” value is “NO IP”. Also, the Emax in experiment [2] (setting [3]) was 19%. Further, the EC50 in experiment [2] (read-out: LXR beta IP) was found to be 27 nM.

Turning to `COc1cccc([C@@](O)(C(=O)N2CCC(CC3(C)CCN(c4ccc(C(=O)N(C)C)c(Cl)c4)CC3)CC2)C(F)(F)F)c1` [Example 3-1, (R)-2-chloro-N,N-dimethyl-4-(4-methyl-4-((1-(3,3,3-trifluoro-2-hydroxy-2-(3-methoxyphenyl)propanoyl)piperidin-4-yl)methyl)piperidin-1-yl)benzamide], in experiment [1], the Emax was determined as 5% and the “LXR alpha IP (nM)” value is given as “NO IP”. In experiment [2] (LXR beta IP (nM)), the EC50 is 35 nM. Further, the Emax in experiment [2] came to 63%.

For `O=C(c1ccc(N2CCC(CC3CCN(C(=O)[C@](O)(c4ccccc4)C(F)(F)F)CC3)CC2)cc1Cl)N1CCC1` [Example 4-1, (R)-1-(4-((1-(4-(azetidine-1-carbonyl)-3-chlorophenyl)piperidin-4-yl)methyl)piperidin-1-yl)-3,3,3-trifluoro-2-hydroxy-2-phenylpropan-1-one], the Emax amounted to 31% in experiment [1] and 72% in experiment [2] (setting [3]). Also, the figures for the EC50 in experiment [1] and in experiment [2] (read-out: LXR beta IP) were 555 nM and 53 nM, respectively.

For the compound `CC(C)N(C)C(=O)c1ccc(N2CCC(CC3CCN(C(=O)[C@](O)(c4ccccc4)C(F)(F)F)CC3)CC2)cc1Cl` [Example 4-2, 2-chloro-N-methyl-N-(1-methylethyl)-4-[4-({1-[(2R)-3,3,3-trifluoro-2-hydroxy-2-phenyl-propanoyl]piperidin-4-yl}methyl)piperidin-1-yl]benzamide], the Emax in experiment [1] was determined as 30%; in experiment [2] (setting [3]), 73%. Also, the EC50 in experiment [1] came out at 270 nM; in experiment [2] (read-out: LXR beta IP) it was 29 nM.

For the compound `O=C(c1ccc(N2CCC(CC3CCN(C(=O)[C@](O)(c4ccccc4)C(F)(F)F)CC3)CC2)cc1Cl)N1CCC[C@H]1CO` [Example 4-3, (2R)-3-(4-{[1-(3-chloro-4-{[(2S)-2-(hydroxy-methyl)pyrrolidin-1-yl]carbonyl}phenyl)piperidin-4-yl]methyl}piperidin-1-yl)-1,1,1-trifluoro-3-oxo-2-phenylpropan-2-ol], the Emax in experiment [1] turned out to be 30%; in experiment [2] (setting [3]), 63%. Also, the EC50 in experiment [1] amounted to 50 nM; in experiment [2] (read-out: LXR beta IP), 5 nM.

As for `O=C(c1ccc(N2CCC(CC3CCN(C(=O)[C@](O)(c4ccccc4)C(F)(F)F)CC3)CC2)cc1Cl)N1CC[C@@H](CO)C1` [Example 4-4, (2R)-3-(4-{[1-(3-chloro-4-{[(3R)-3-(hydroxymethyl)pyrrolidin-1-yl]carbonyl}phenyl)piperidin-4-yl]methyl}piperidin-1-yl)-1,1,1-trifluoro-3-oxo-2-phenylpropan-2-ol], the results for the Emax in experiment [1] and in experiment [2] (setting [3]) were 24% and 56%, respectively. The EC50 in experiment [1] was 459 nM; in experiment [2] (read-out: LXR beta IP), 179 nM.

As for `O=C(c1ccc(N2CCC(CC3CCN(C(=O)[C@](O)(c4ccccc4)C(F)(F)F)CC3)CC2)cc1Cl)N1C2CCC1CC2` [Example 4-5, (2R)-3-[4-({1-[4-(7-azabicyclo[2.2.1]hept-7-ylcarbonyl)-3-chlorophenyl]piperidin-4-yl}methyl)piperidin-1-yl]-1,1,1-trifluoro-3-oxo-2-phenylpropan-2-ol], the Emax in experiment [1] is 29%; in experiment [2] (setting [3]), 53%. Besides, the EC50 in experiment [1] stood at 401 nM; in experiment [2] (read-out: LXR beta IP), 59 nM.

As for `C[C@H]1CCCN1C(=O)c1ccc(N2CCC(CC3CCN(C(=O)[C@](O)(c4ccccc4)C(F)(F)F)CC3)CC2)cc1Cl` [Example 4-6, (2R)-3-(4-{[1-(3-chloro-4-{[(2S)-2-methyl-pyrrolidin-1-yl]carbonyl}phenyl)piperidin-4-yl]methyl}piperidin-1-yl)-1,1,1-trifluoro-3-trifluoro-3-oxo-2-phenylpropan-2-ol], the Emax in experiment [1] was determined as 39%; in experiment [2] (setting [3]), 78%. The EC50 came to 331 nM in experiment [1] and 38 nM in experiment [2] (read-out: LXR beta IP).

As to `O=C(c1ccc(N2CCC(OC3CCN(C(=O)[C@](O)(c4ccccc4)C(F)(F)F)CC3)CC2)cc1Cl)N1CCC[C@H]1CO` [Example 4-7, (2R)-3-(4-{[1-(3-chloro-4-{[(2S)-2-(hydroxy-methyl)pyrrolidin-1-yl]carbonyl}phenyl)piperidin-4-yl]oxy}piperidin-1-yl)-1,1,1-trifluoro-3-oxo-2-phenylpropan-2-ol], the Emax worked out at 50% in experiment [1] and 76% in experiment [2] (setting [3]). Besides, the EC50 is 516 nM in experiment [1] and 31 nM in experiment [2] (read-out: LXR beta IP).
